# How the values were obtained:
# NK1 [1] = target: T1, NK1 (Homo sapiens, UniProt P25103); experiment: NK1 functional assay: Substance P-induced 45Ca2+ efflux from human astrocytoma U373MG cells; assay type: cell-based; parameters: Human astrocytoma cells (U--373 MG, ATCC No. HTB 17) were cultured in 75-mL flasks; host or cells: U-373 MG human astrocytoma cells (intact monolayer); conditions: read-out: IC50, inhibition of Substance P-induced 45Ca2+ efflux
# NK2 receptor [2] = target: T2, NK2 receptor (Homo sapiens, UniProt P21452); experiment: 125I-neurokinin A binding to the NK2 receptor in human urinary bladder membranes; conditions: read-out: Ki, inhibition of 125I-neurokinin A binding to the NK2 receptor
# T2 construct: NK2 receptor in both rat duodenum and human urinary bladder membranes; from tissue; host or cells: human urinary bladder membranes
# T2 sequence (P21452 1-398): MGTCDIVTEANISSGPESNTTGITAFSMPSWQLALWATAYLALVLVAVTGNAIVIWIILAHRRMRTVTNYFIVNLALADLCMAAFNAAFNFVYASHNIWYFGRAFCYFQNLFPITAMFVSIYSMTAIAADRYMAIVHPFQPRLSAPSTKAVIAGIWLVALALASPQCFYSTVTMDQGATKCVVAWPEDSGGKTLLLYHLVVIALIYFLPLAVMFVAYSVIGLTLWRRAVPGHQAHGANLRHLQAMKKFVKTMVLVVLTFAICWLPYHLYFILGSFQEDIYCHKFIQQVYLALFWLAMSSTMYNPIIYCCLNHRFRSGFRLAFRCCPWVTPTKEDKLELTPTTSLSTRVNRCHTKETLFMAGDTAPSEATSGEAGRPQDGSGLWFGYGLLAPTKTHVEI
# NK1 [3] = target: T1, NK1; experiment: Substance P NK1 receptor binding, 125I-Bolton Hunter Substance P, human astrocytoma cells (U-373 MG); parameters: host or cells: U-373 MG human astrocytoma cells (intact monolayer); conditions: for IC50: comparative test with ditryptophenaline, read-out: IC50, Substance P antagonist activity in human astrocytoma cells
# Procedure: (§1) As stated above the compounds of Formula I are useful as Substance P antagonists and therefore as analgesic and/or antiinflammatory agents. Substance P antagonist NK1 receptor binding activity was determined using guinea pig submaxillary gland tissue and human astrocytoma cells.
# Human astrocytoma cells (U--373 MG, ATCC No. HTB 17) were cultured in 75-mL flasks in an aqueous medium containing horse serum (heat inactivated, 10%), minimum essential amino acids (2%), minimum essential vitamin solution (2%), and an aqueous solution of penicillin (10,000 units/mL) and streptomycin (10,000 μg/mL) (Penn-Strep, 2%), which was sterilized by filtration through a disposable filter (Nalgene, VWR Cat. No. 28199-585). The medium was replaced twice weekly. Cells were passaged (1:4 split) by removing the medium and adding aqueous trypsin (0.25%, 8 mL/flask). The flasks were swirled for 30 seconds, the aqueous trypsin was removed, and the cells were incubated for 5 minutes at room temperature, then washed twice with fresh medium (7 mL each time). Poly-D-lysine solution (50 μg/mL in aqueous phosphate saline buffer, 0.25 mL) was added to each well of a sterile 96-well […] plate (Corning), which was then incubated at room temperature for 40 minutes. The poly-D-lysine solution was removed, each well was washed twice with aqueous phosphate saline buffer (0.25 mL), cells were added (0.2 mL/well), and the plate was incubated at 37° C. for two days in an oxygen-carbon dioxide (95:5) atmosphere to provide a monolayer of 1.4-1.9×10^4 cells per well.
# To test for receptor binding the aqueous phosphate saline buffer was removed from each well, the cell monolayer was washed three times with assay buffer (aqueous 2-[4-(2-hydroxyethyl)-1-piperazinyl]ethanesulfonic acid [HEPES], 25 mM; potassium chloride, 5.8 mM; monopotassium phosphate, 2.2 mM; sodium chloride, 115 mM; magnesium sulfate, 0.6 mM; calcium chloride, 1.8 mM; bovine serum albumin, 1%; glucose, 5 mM; thiorphan, 1 μM; and bacitracin, 40 μg/mL; pH adjusted to 7.40 with dilute hydrochloric acid; 0.25 mL each time). To each well was then added assay buffer alone (0.1 mL) or a mixture (0.1 mL) with assay buffer as diluent containing ^125 I-Bolton Hunter Substance P (Amersham, Inc., Arlington Heights, Ill.; 0.1 nanomole) and test compound in amount to give the desired concentration thereof or, to determine nonspecific binding, unlabelled Substance P (0.1 micromole) and the plate was incubated at 25° C. for 90 minutes. […] The radioactivity of part (100 μL) of the detachment mixture was measured in a gamma ray counter (Packard Cobra). Kd and IC50 values were determined and a Ki value was calculated for each test compound as described above.
# NK3 = target: T3, NK3 (Cavia porcellus, UniProt P30098); experiment: NK3 selective ligand 3H-senktide binding, guinea pig forebrain membrane preparation; conditions: read-out: IC50 against NK3 selective ligand 3H-senktide
# T3 construct: tested in a guinea pig forebrain membrane preparation; from tissue; host or cells: guinea pig forebrain membrane preparation
# T3 sequence (P30098 1-440): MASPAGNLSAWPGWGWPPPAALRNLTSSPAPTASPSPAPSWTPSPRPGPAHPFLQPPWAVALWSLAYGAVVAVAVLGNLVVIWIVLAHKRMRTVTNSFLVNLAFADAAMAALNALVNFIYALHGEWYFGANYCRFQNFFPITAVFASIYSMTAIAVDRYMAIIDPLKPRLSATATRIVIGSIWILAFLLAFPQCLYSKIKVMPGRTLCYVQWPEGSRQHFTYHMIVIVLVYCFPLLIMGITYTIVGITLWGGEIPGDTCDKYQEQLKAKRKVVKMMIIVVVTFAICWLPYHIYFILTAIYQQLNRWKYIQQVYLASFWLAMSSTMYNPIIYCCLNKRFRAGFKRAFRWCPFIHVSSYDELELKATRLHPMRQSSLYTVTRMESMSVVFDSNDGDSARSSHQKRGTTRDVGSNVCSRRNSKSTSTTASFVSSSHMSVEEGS
# NK2 receptor [4] = target: T4, NK2 receptor (Rattus norvegicus, UniProt P16610); experiment: Eledoisin-induced contractility in rat vas deferens model; assay type: cell-based; parameters: from tissue; host or cells: rat vas deferens (organ preparation); conditions: functional antagonism at the NK2 receptor, read-out: IC50, inhibition of eledoisin-induced contractility
# T4 sequence (P16610 1-390): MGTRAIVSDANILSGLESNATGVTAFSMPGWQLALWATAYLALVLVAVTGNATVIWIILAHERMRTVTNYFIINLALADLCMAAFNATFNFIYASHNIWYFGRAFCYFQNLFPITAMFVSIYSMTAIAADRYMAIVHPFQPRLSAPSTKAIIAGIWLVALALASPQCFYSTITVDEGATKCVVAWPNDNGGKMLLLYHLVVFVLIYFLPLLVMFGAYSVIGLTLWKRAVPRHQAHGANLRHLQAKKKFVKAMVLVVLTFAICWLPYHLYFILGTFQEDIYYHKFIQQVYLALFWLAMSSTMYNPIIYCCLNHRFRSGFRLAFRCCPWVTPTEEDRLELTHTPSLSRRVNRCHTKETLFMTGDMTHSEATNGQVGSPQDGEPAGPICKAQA
# NK2 receptor [5] = target: T4, NK2 receptor; experiment: 125I-neurokinin A binding to the NK2 receptor in rat duodenum membranes; parameters: from tissue; conditions: read-out: Ki, inhibition of 125I-neurokinin A binding to the NK2 receptor
# NK1 [6] = target: T5, NK1 (Cavia porcellus, UniProt P30547); experiment: Substance P NK1 receptor binding, tritiated Substance P, guinea pig submaxillary gland tissue; parameters: the resulting submaxillary gland tissue preparation (1.0 to 1.5 mL) was stored at -70° C; tissue Pel Freeze Biologicals; host or cells: guinea pig submaxillary gland homogenate; conditions: tritiated Substance P 0.75 nM; Ki calculated from IC50 by Cheng-Prusoff; read-out: Ki Guinea Pig Submaxillary Gland Tissue (Substance P antagonist potency)
# Procedure: as §1
# Submaxillary glands from both sexes of Hartley guinea pigs were obtained from Pel Freeze Biologicals, Rogers, Arkansas by overnight express in a plastic bag kept cold in wet ice. […] Using serum bovine albumin as the standard the protein yield was determined by the Bradford method (Bio-Rad, Richmond, Calif.) to be 7-8 mg/mL or about 250 mg from 50 submaxillary glands.
# To test for receptor binding a sample of the submaxillary gland tissue preparation was thawed on ice and rehomogenized with a glass homogenizer (Dounce). […] The residue on the filter was washed three times with tromethamine buffer (3 mL each time) and its radioactivity was measured in a liquid scintillation counter (Beckman LS5000) (x=number of counts per minute with test compound, y=number of counts per minute without test compound). […] The dissociation constant (Kd) for receptor binding was determined by varying the concentration of tritiated Substance P. The following calculations were made: […]
# NK1 [7] = target: T5, NK1; experiment: NK1 functional assay: Substance P-induced contractility in the guinea pig ileum; assay type: cell-based; parameters: Substance P-induced contractility in the guinea pig ileum; from tissue; host or cells: guinea pig ileum (organ preparation)
# [8] = quoted from Springer et al., Tetrahedron Letters 1977; cited from earlier work
# T1 sequence (P25103 whole entry): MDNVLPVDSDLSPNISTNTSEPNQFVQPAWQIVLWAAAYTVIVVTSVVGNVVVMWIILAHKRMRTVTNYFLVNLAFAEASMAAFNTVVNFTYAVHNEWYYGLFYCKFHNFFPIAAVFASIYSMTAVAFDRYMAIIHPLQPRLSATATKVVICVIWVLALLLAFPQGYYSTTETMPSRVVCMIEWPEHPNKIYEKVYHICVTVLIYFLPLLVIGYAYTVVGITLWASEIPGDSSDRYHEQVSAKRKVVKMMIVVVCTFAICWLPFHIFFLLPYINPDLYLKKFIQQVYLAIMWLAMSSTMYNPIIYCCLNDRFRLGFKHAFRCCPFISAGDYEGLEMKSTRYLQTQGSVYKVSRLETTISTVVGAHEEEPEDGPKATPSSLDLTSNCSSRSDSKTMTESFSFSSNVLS
# T5 sequence (P30547 whole entry): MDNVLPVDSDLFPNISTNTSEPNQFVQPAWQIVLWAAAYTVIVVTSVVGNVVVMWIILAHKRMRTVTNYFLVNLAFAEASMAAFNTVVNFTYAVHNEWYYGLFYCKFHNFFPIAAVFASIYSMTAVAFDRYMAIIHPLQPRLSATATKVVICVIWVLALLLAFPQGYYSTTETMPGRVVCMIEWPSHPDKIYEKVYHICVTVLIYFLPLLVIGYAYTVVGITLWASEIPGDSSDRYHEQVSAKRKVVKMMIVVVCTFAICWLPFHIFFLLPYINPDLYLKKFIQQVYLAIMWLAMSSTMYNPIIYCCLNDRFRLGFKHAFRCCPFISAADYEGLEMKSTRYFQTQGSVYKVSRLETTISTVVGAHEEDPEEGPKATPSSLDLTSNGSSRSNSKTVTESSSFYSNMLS
IC50 (NK1 [1]),Ki (NK2 receptor [2]),"Ki (NK1 [3]; U-373 MG cells, 125I-Bolton Hunter Substance P, Ki calculated from IC50, read-out: Ki Human Astrocytoma Cells (Substance P antagonist potency))",Potency relative to ditryptophenaline (NK1 [3]; ratio of IC50 values in human astrocytoma cells),IC50 (NK3),IC50 (NK2 receptor [4]),Ki (NK2 receptor [5]),Ki (NK1 [6]),"pA2, competitive inhibition of Substance P-induced contractility (NK1 [7])",Compound,IC50 (NK1 [3]),LD50 [8]
0.6 ± 0.3 µM,0.72 µM,0.24 µM,fortyfold,15.2 µM,3.4 ± 1.3 µM,0.26 µM,0.95 to 2.4 µM,6.6±0.31,O=C1N[C@@H](Cc2ccccc2)C(=O)N2[C@H]3Nc4ccccc4C3([C@]34C[C@H]5C(=O)N[C@@H](Cc6ccccc6)C(=O)N5[C@H]3Nc3ccccc34)C[C@@H]12 (stereo partly drawn) [Compound I-1],0.3 µM,
,,,,,,,,,"CN1C(=O)[C@@H]2C[C@@]3([C@@]45C[C@H]6C(=O)N(C)[C@@H](Cc7ccccc7)C(=O)N6[C@@H]4Nc4ccccc45)c4ccccc4N[C@H]3N2C(=O)[C@@H]1Cc1ccccc1 [ditryptophenaline, reference compound]",12 µM,> 200 mg/kg

# From patent US5338845A, “Aspergillus species, cyclic dimeric dipeptide derivative substance P antagonist biosynthetic products thereof, and process for preparation thereof” (Sterling Winthrop Inc., priority 1992, dated 1994)
